According to patent US7157481B2 (priority 1997, dated 2007):

Experiments:
[1] = tested on: larvae of the mustard beetle (Phaedon cochleariae); test: Phaedon Larvae Test; assay type: in vivo; conditions: cabbage leaves dipped, 0.1 % by weight active compound; after 7 days
Experimental: (§1) To produce a suitable preparation of active compound, 1 part by weight of active compound is mixed with the stated amounts of solvent and emulsifier, and the concentrate is diluted with water to the desired concentration.
Cabbage leaves (Brassica oleracea) are treated by being dipped into the preparation of active compound of the desired concentration and populated with larvae of the mustard beetle (Phaedon cochleariae) while the leaves are still moist.
After 7 days, the kill is determined and expressed in per cent. An efficacy of 100% means that all beetle larvae have been killed, while an efficacy of 0% means that no beetle larvae have been killed.

[2] = log P determination by HPLC (EEC Directive 79/831 Annex V. A8, gradient method); assay type: physicochemical; conditions: acetonitrile/0.1% aqueous phosphoric acid
[3] = tested on: caterpillars of the diamond-back moth (Plutella xylostella); test: Plutella Test; assay type: in vivo; conditions: cabbage leaves dipped, 0.1 % by weight active compound; after 7 days
Experimental: as §1
Cabbage leaves (Brassica oleracea) are treated by being dipped into the preparation of active compound of the desired concentration and populated with caterpillars of the diamond-back moth (Plutella xylostella) while the leaves are still moist.
After 7 days, the kill is determined and expressed in per cent. An efficacy of 100% means that all caterpillars have been killed, while an efficacy of 0% means that none of the caterpillars have been killed.

Venturia inaequalis = test: Venturia Test (Apple)/protective; assay type: in vivo; conditions: young apple plants sprayed at 100 g/ha, protective; evaluation 12 days after inoculation
Experimental: Venturia Test (Apple)/protective
as §1
To test for protective activity, young plants are sprayed with the preparation of active compound at the stated application rate. After the spray coating has dried on, the plants are inoculated with an aqueous conidia suspension of the causative organism of apple scab Venturia inaequalis and then remain in an incubation cabin at approximately 20° C. and 100% relative atmospheric humidity for 1 day.
The plants are then placed in a greenhouse at approximately 21° C. and a relative atmospheric humidity of approximately 90%.
Evaluation is carried out 12 days after the inoculation. 0% means an efficacy which corresponds to that of the control, while an efficacy of 100% means that no infection is observed.

Leptosphaeria nodorum = Leptosphaeria nodorum Test (Wheat)/protective; assay type: in vivo; conditions: young wheat plants sprayed at 250 g/ha, protective; evaluation 10 days after inoculation
Experimental: Leptosphaeria nodorum Test (Wheat)/protective
as §1
To test for protective activity, young plants are sprayed with the preparation of active compound at the stated application rate. After the spray coating has dried on, the plants are sprayed with a spore suspension of Leptosphaeria nodorum. The plants remain in an incubation cabin at 20° C. and 100% relative atmospheric humidity for 48 hours.
The plants are then placed in a greenhouse at a temperature of approximately 15° C. and a relative atmospheric humidity of 80%.
Evaluation is carried out 10 days after the inoculation. 0% means an efficacy which corresponds to that of the control, while an efficacy of 100% means that no infection is observed.

O=C(NCCOS(=O)OCCNC(=O)c1snc(Cl)c1Cl)c1snc(Cl)c1Cl showed a melting point of 70 to 75 °C.

For CC(C)(C)CSCc1ccc(NC(=O)c2snc(Cl)c2Cl)cc1, the melting point was 91 to 92 °C.

CCC(CC)c1ccc(NC(=O)c2snc(Cl)c2Cl)cc1 showed a melting point of 98 to 99 °C.

In the case of CN(C=O)CNC(=O)c1snc(Cl)c1Cl, the melting point is reported as 87 to 88 °C.

For Cc1ccc(NC(=O)c2snc(Cl)c2Cl)c(C)c1, the melting point was 171 to 172 °C.

For CC(C)(C)c1ccc(NC(=O)c2snc(Cl)c2Cl)cc1 [Example 3], the melting point was 148 to 149 °C and the “Kill in % after 7 d” value [1] was 100%.

In the case of CC(C)(C)c1ccc(CCNC(=O)c2snc(Cl)c2Cl)cc1 [Example 4], the chromatographic logP [2] is reported as 4.81 and the “Kill in % after 7 d” value [3] is reported as 100%.

Molecule O=C(NCCc1cccc(Oc2ccc(Cl)cc2)c1)c1snc(Cl)c1Cl [Example 6] has a chromatographic logP [2] of 4.79 and an Efficacy in % (Venturia inaequalis) of 96%.

In the case of CCN(CC)Cc1ccc(CNC(=O)c2snc(Cl)c2Cl)cc1 [Example 14], the chromatographic logP [2] is reported as 1.39 and the “Kill in % after 7 d” value [3] is reported as 100%.

Molecule CCC(C)c1ccc(NC(=O)c2snc(Cl)c2Cl)cc1 (stereo not drawn) [Example 16] has a melting point of 83 to 85 °C and an Efficacy in % (Leptosphaeria nodorum) of 81%.

For O=C(Nc1ccccc1C1CCCCCC1)c1snc(Cl)c1Cl [Example 20], the melting point was 122 to 125 °C and the “Kill in % after 7 d” value [3] was 100%.

With O=C(Nc1ccccc1-c1ccccc1)c1snc(Cl)c1Cl [Example 21] the melting point was 83 to 84 °C (dec.) and the “Kill in % after 7 d” value [3] was 100%.

For O=C(NCCc1ccc(-c2ccc(Cl)cc2)cc1)c1snc(Cl)c1Cl [Example 23], the melting point was 135 to 136 °C and the “Kill in % after 7 d” value [3] was 100%.
